The text below walks through data of publication PMC9516332 (Frontiers in Oncology, 2022).

Structures are written as SMILES.

Common to all, as to assay: Kinase panel profiling at 1 µmol/L (MSA or IMAP), percentage inhibition
Assay type in all cases: biochemical

For assay [1], the target named is T1, panel of 255 wild-type kinases (Homo sapiens, UniProt O15264).
T1 sequence (O15264 1-365): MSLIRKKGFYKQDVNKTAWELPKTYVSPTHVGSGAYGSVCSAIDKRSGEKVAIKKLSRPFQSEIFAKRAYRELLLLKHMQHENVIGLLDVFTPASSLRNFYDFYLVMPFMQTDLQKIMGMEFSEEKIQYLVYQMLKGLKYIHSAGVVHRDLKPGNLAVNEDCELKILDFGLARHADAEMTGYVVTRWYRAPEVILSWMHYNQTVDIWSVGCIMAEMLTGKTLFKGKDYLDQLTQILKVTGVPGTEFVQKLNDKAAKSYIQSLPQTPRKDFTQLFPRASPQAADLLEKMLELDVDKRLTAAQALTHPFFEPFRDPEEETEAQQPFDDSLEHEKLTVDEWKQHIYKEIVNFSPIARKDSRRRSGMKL
The settings on record: p38δ; 1 µmol/L single concentration; read-out: %-inhibition, p38δ.

The target of assay [2] is panel of 255 wild-type kinases (Homo sapiens, UniProt P06213). The settings on record: kinase INSR; 1 µmol/L single concentration; read-out: %-inhibition at 1 µmol/L, INSR.
The target of assay [3] is panel of 255 wild-type kinases (Homo sapiens, UniProt P11802). The settings on record: CDK4/CycD3 kinase assay; 1 µmol/L single concentration; read-out: %-inhibition CDK4/CycD3.
Assay [4] concerns the target panel of 255 wild-type kinases (Homo sapiens, UniProt P35916). The settings on record: kinase FLT4; 1 µmol/L single concentration; read-out: %-inhibition at 1 µmol/L, FLT4.
Assay [5] addresses panel of 255 wild-type kinases (Homo sapiens, UniProt P49841). The settings on record: kinase GSK3β; 1 µmol/L single concentration.
Assay [6] addresses panel of 255 wild-type kinases (Homo sapiens, UniProt Q14680). The settings on record: MELK; 1 µmol/L single concentration; read-out: %-inhibition, MELK.
Assay [7] concerns the target T2, panel of 255 wild-type kinases (Homo sapiens, UniProt Q15139).
T2 sequence (Q15139 1-912): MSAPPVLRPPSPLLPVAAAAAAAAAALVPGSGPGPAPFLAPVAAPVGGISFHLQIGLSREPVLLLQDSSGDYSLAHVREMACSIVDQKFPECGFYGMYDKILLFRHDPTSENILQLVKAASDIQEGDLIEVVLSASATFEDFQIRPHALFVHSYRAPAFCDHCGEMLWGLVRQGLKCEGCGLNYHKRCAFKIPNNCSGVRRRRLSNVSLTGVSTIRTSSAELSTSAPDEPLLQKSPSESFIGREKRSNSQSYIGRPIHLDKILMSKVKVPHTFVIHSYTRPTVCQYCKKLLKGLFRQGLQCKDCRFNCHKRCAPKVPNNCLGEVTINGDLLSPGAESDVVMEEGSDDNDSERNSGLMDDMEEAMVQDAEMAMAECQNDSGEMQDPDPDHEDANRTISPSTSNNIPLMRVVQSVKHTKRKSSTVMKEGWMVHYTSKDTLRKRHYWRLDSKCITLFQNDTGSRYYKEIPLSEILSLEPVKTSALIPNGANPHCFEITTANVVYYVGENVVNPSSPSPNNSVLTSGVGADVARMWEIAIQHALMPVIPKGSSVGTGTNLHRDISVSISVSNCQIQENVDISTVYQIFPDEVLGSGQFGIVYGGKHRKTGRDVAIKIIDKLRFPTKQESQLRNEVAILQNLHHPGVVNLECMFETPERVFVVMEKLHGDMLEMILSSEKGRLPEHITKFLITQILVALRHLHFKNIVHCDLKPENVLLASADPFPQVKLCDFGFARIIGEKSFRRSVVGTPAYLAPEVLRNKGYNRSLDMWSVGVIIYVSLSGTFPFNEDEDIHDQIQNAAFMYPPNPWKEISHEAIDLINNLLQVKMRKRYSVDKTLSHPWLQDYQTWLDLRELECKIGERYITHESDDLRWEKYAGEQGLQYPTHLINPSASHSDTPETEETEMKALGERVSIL
The settings on record: kinase PKD1; 1 µmol/L single concentration; read-out: %-inhibition at 1 µmol/L, PKD1.

The target in assay [8] is panel of 255 wild-type kinases (Homo sapiens, UniProt Q15418). Particulars: kinase RSK1; 1 µmol/L single concentration; read-out: %-inhibition at 1 µmol/L, RSK1.
Assay [9] addresses panel of 255 wild-type kinases (Homo sapiens, UniProt Q16288). The settings on record: kinase TRKC; 1 µmol/L single concentration; read-out: %-inhibition at 1 µmol/L, TRKC.
Assay [10] deals with panel of 255 wild-type kinases (Homo sapiens, UniProt Q7KZI7). Particulars: MARK2; 1 µmol/L single concentration; read-out: %-inhibition, MARK2.
The target of assay [11] is T3, panel of 255 wild-type kinases (Homo sapiens, UniProt Q96PF2).
T3 sequence (Q96PF2 1-358): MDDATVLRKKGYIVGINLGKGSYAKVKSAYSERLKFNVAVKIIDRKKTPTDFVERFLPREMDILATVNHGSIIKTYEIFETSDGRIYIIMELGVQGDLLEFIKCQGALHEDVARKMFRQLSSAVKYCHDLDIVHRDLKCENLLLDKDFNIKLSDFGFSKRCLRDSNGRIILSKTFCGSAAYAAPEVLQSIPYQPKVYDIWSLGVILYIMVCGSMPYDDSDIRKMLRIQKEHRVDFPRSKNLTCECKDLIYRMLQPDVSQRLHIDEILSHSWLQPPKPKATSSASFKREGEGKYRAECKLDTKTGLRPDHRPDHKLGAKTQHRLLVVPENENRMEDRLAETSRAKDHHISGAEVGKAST
Particulars: kinase TSSK2; 1 µmol/L single concentration; read-out: %-inhibition at 1 µmol/L, TSSK2.

For assay [12], the target named is panel of 255 wild-type kinases (Homo sapiens, UniProt Q9P1W9). Particulars: kinase PIM2; 1 µmol/L single concentration; read-out: %-inhibition at 1 µmol/L, PIM2.

Turning to `CCc1nc(C(N)=O)c(Nc2ccc(N3CCC(N4CCN(C)CC4)CC3)c(OC)c2)nc1NC1CCOCC1` [gilteritinib], the inhibition at 1 µM was 1.74% in assay [1]; 100% in assay [2]; 46% in [3]; 99% in assay [4]; 4% in [5]; 75% in assay [6]. Further, the inhibition at 1 µM in assay [7] was 52%; in assay [8] it was 54%; in [9], 100%; in assay [10] it was 43%; in [11], 55%; in assay [12], -1.37%.
With `CCN1CCN(c2ccc(Nc3cc(N(C)C(=O)Nc4c(Cl)c(OC)cc(OC)c4Cl)ncn3)cc2)CC1` [infigratinib], the inhibition at 1 µM is -4% in assay [1]; 17% in assay [2]; 66% in assay [3]; 92% in assay [4]; -9% in assay [5]; -2% in [6]. The inhibition at 1 µM in assay [7] was 11%; in assay [8] it was -3%; in assay [9], 6%; in [10], -9%; in [11], -3.74%; in assay [12], -7%.
`O=C(Nc1cnn2ccc(N3CCC[C@@H]3c3cc(F)ccc3F)nc12)N1CC[C@H](O)C1` [larotrectinib]: the inhibition at 1 µM in assay [1] is -7%; in assay [2] it was 2%; in assay [3] it was -0.745%; in [4], -1%; in assay [5] it was -11%; in assay [6], -1.52%. Moreover, the inhibition at 1 µM is 0.148% in [7]; -3.46% in assay [8]; 101% in [9]; -19% in assay [10]; -0.476% in assay [11]; -6.57% in assay [12].
For `CCN1C(=O)N(c2c(F)c(OC)cc(OC)c2F)Cc2cnc3[nH]c(CN4CCOCC4)cc3c21` [pemigatinib], the inhibition at 1 µM in [1] is -6%; in [2], 9%; in assay [3], 9%; in [4] it was 99%; in assay [5] it was -7%; in assay [6], 0.738%. For the same compound, the inhibition at 1 µM was 10% in [7]; -1.79% in assay [8]; -0.168% in assay [9]; 50% in [10]; -3.21% in assay [11]; -6% in assay [12].
Take `FC(F)(F)c1ccc(CNc2ccc(Cc3c[nH]c4ncc(Cl)cc34)cn2)cn1` [pexidartinib]: the inhibition at 1 µM was 1.15% in assay [1]; 17% in [2]; -1.58% in assay [3]; 66% in assay [4]; 4.44% in assay [5]; 3% in [6]. Further, the inhibition at 1 µM was -2.56% in [7]; 7.43% in assay [8]; 81% in assay [9]; 5.3% in assay [10]; -0.308% in [11]; -2.72% in assay [12].
As for `CO[C@]1(C(=O)N[C@@H](C)c2ccc(-n3cc(F)cn3)nc2)CC[C@H](c2nc(C)cc(Nc3cc(C)[nH]n3)n2)CC1` [pralsetinib], the inhibition at 1 µM in [1] is 0.0555%; in assay [2], 10%; in [3], -1%; in assay [4] it was 99%; in assay [5], 51%; in assay [6], 3.6%. Also, the inhibition at 1 µM was 0.3% in assay [7]; 26% in assay [8]; 98% in assay [9]; -15% in assay [10]; 8% in [11]; -4% in assay [12].
As for `CCn1c(=O)c(-c2cc(NC(=O)Nc3ccccc3)c(F)cc2Br)cc2cnc(NC)cc21` [ripretinib], the inhibition at 1 µM is -0.186% in [1]; 1.55% in assay [2]; -1.19% in [3]; 93% in [4]; -0.349% in [5]; 30% in [6]. The inhibition at 1 µM in assay [7] was 15%; in [8], 8%; in assay [9], 54%; in assay [10], -2.22%; in assay [11], -3.73%; in assay [12] it was -3%.
In the case of `COc1ccc(CN2C3CC2CN(c2ccc(-c4cc(OCC(C)(C)O)cn5ncc(C#N)c45)cn2)C3)cn1` [selpercatinib], the inhibition at 1 µM in [1] was -6.33%; in assay [2], 1.51%; in assay [3], 0.921%; in assay [4] it was 101%; in [5], 40%; in [6] it was 62%. Moreover, the inhibition at 1 µM in [7] was 3.64%; in [8], 51%; in assay [9] it was 10%; in [10], 26%; in assay [11], -0.889%; in assay [12] it was -6%.
Turning to `Cn1cnc2c(F)c(Nc3ccc(Br)cc3Cl)c(C(=O)NOCCO)cc21` [selumetinib], the inhibition at 1 µM in [1] is -4%; in [2], 3%; in assay [3], -1.85%; in [4], 8%; in assay [5], -8%; in assay [6] it was -2.6%. Further, the inhibition at 1 µM in assay [7] is -0.6%; in [8] it was -8%; in [9], 10%; in [10], -14%; in [11], -4.25%; in [12] it was -3.45%.
